Laboratory results from patent publication US12370237B2, “Lipopeptides for use in treating liver diseases and cardiovascular diseases” (RUPRECHT-KARLS-UNIVERSITAET HEIDELBERG, priority 2012, dated 2025).

Key:
hNTCP = target: T1, hNTCP (Homo sapiens, UniProt Q14973); test: MyrB^atto binding competition assay by FACS in HuH7^hNTCP cells; settings: 500 μM
T1 construct: host or cells: HuH7
T1 sequence (Q14973 1-349): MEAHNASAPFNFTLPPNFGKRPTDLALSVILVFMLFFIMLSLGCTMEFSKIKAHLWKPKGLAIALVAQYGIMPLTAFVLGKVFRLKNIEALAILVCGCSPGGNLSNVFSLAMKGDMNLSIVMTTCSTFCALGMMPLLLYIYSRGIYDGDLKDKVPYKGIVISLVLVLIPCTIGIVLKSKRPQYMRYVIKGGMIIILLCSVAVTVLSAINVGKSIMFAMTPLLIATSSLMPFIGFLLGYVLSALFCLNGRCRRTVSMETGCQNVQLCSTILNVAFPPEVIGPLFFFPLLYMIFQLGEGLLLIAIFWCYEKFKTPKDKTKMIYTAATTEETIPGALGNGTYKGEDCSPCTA
Method: Binding was quantified by FACS analysis.
(§1) Cells were washed (PBS/1% BSA), trypsinized, and suspended in Krebs-Henseleit-Buffer. Flow cytometry was performed on a FACS Canto II (BD Bioscience, Heidelberg, Germany); FlowJo v7.61 software (Treestar, Ashton, USA) was used for analysis. Compensation was performed using BD Compbeats (BD Bioscience, Heidelberg, Germany).

HBV = HBV infection of differentiated HepaRG and HuH7^hNTCP cells in presence of NTCP substrates (secreted HBeAg); assay type: cell-based; settings: for Reduction of HBV infection (HBeAg secretion): 5 μM; for Inhibition of HBV infection as shown by HBeAg secretion: 50 μM and 500 μM
mNtcp = target: T2, mNtcp (Mus musculus, UniProt O08705); test: MyrB^atto binding to HepG2^mNtcp cells (FACS)
T2 construct: expressed in transfected cells; host or cells: HepG2
T2 sequence (O08705 1-362): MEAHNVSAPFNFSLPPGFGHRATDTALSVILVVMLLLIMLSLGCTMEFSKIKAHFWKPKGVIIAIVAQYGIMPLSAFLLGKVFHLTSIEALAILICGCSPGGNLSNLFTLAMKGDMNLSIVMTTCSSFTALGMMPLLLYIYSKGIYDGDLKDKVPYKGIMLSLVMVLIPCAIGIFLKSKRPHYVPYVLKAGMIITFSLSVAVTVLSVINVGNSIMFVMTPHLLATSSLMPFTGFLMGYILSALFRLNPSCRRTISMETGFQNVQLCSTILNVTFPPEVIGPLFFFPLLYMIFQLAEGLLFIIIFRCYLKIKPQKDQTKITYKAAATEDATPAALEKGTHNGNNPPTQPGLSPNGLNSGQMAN
Method: as §1
(§2) Taking advantage of the fluorescence of the ratNTCP-eGFP fusion, we confirmed co-localisation of the MyrB/rNtcp-complex in microvilli.

ratNTCP-eGFP = target: T3, ratNTCP-eGFP (Rattus norvegicus, UniProt P26435); test: MyrB^atto binding to HepG2 ratNTCP-eGFP cells (confocal microscopy)
T3 construct: expressed in transfected cells; host or cells: HepG2
T3 sequence (P26435 1-362): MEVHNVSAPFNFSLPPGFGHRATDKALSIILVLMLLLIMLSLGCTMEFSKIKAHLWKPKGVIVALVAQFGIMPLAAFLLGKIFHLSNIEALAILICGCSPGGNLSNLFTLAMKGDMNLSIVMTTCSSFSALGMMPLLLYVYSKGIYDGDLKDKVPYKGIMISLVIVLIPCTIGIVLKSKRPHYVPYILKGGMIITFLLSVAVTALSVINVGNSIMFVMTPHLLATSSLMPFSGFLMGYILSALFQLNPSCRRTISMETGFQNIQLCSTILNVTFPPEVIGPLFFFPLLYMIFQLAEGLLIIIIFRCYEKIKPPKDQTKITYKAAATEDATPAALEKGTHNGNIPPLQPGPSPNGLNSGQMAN
Method: Note the co-localisation of hNTCP/MyrB^atto in microvilli.
Cells were washed again (3×PBS/2% BSA), fixed with PFA, washed with PBS/1 ug/ml Hoechst 3342 and mounted (FluoromountG). NTCP immune staining was achieved after permeabilisation (10 min/RT) with TritonX 100 using a α-SCL10A1/NTCP antibody (Sigma, Germany) diluted 1:750 in PBS/2% BSA (18 h at 4° C.). A polyclonal rabbit antiserum H863 was used for HBcAg-staining, a polyclonal rabbit antiserum for MRP-2 detection, patient-derived serum (M. Roggendorf, Essen) for HδAg. As secondary antibodies goat anti-rabbit or -human, labelled with either AlexaFluor488 or AlexaFluor546 (Invitrogen) was used. Actin staining was performed by the addition of atto633-labelled Phalloidin diluted 1:2000 (ATTO-Tec, Germany) to the second staining step. Images were taken on a Leica DM IRB or Leica SP2 confocal microscope (Leica, Germany), image analysis was performed using ImageJ.
as §2

| Interference with MyrB^atto (preS) binding (hNTCP) | Compound | Reduction of HBV infection (HBeAg secretion) (HBV) | Inhibition of HBV infection as shown by HBeAg secretion (HBV) | Binding to mNtcp-expressing cells (mNtcp) | Binding to rat NTCP-eGFP-expressing cells (ratNTCP-eGFP) |
| --- | --- | --- | --- | --- | --- |
| profoundly interfered with preS-binding | C[C@H](CCC(=O)NCCS(=O)(=O)O)[C@H]1CC[C@H]2[C@@H]3[C@H](O)C[C@@H]4C[C@H](O)CC[C@]4(C)[C@H]3CC[C@]12C [TCDC, Taurochenodeoxy-Cholate] | Marginal reduction | inhibited HBV-infection | – | – |
| profoundly interfered with preS-binding | C[C@H](CCC(=O)NCCS(=O)(=O)O)[C@H]1CC[C@H]2[C@@H]3CC[C@@H]4C[C@H](O)CC[C@]4(C)[C@H]3C[C@H](O)[C@]12C [TDC, Taurodeoxycholate] | Marginal reduction | inhibited HBV-infection | – | – |
| – | MyrB^atto: atto-dye-labeled MyrB (atto488/atto565 NHS-ester coupled to lysine residues) | – | – | specific and competable binding | specific and competable binding |

| Compound | Interference with MyrB^atto (preS) binding (hNTCP) | Reduction of HBV infection (HBeAg secretion) (HBV) | Inhibition of HBV infection as shown by HBeAg secretion (HBV) | Binding to mNtcp-expressing cells (mNtcp) | Binding to rat NTCP-eGFP-expressing cells (ratNTCP-eGFP) |
| --- | --- | --- | --- | --- | --- |
| C[C@H](CCC(=O)NCCS(=O)(=O)O)[C@H]1CC[C@H]2[C@@H]3[C@H](O)C[C@@H]4C[C@H](O)CC[C@]4(C)[C@H]3C[C@H](O)[C@]12C [TC, Taurocholate] | profoundly interfered with preS-binding | – | – | – | – |
